Laboratory results from US20250034170A1, “SMALL MOLECULE MODULATORS OF GLUCOCEREBROSIDASE ACTIVITY AND USES THEREOF” (Vanqua Bio, Inc., priority 2021, published 2025).
pEC50: −log10 of the molar value.

Molecular target: T1, GCase (Homo sapiens, UniProt P04062)
T1 construct: endogenous in cells; host or cells: HeLa cells
T1 sequence (P04062 40-536): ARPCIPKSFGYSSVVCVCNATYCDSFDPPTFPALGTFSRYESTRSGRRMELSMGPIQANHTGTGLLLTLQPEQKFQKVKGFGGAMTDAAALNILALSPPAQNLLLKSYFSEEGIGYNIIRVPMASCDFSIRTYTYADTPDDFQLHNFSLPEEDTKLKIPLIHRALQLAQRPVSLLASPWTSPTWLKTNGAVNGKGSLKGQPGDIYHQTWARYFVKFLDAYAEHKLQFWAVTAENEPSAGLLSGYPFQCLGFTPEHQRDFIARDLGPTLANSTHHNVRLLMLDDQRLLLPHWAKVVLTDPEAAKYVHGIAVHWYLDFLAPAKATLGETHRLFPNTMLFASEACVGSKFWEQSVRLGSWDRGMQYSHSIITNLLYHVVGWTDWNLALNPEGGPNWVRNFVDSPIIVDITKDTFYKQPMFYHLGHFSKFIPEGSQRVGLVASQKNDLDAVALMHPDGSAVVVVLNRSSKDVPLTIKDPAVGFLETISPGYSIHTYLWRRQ
Test: activation of GCase in a live cell PFB assay in HELA cells
Type: cell-based
Conditions: activation of GCase, EC50 ranges
Method: Exemplary compounds were evaluated for activation of GCase in a live cell PFB assay in HELA cells (essentially as described in Ysselstein et al., “LRRK2 kinase activity regulates lysosomal glucocerebrosidase in neurons derived from Parkinson's disease patients” Nature Communications (2019) 10:5570). […] EC50 ranges: A: <10 μM; B: >10-50 μM; C: >50-100 μM; D: >100 μM.

SMILES	pEC50
FC(F)Cn1ncc2ncc(N3CC4(CCN(c5ncccc5C(F)(F)F)CC4)C3)nc21 [Compound 123, 2-[1-(2,2-difluoroethyl)-1H-pyrazolo[3,4-b]pyrazin-6-yl]-7-[3-(trifluoromethyl)pyridin-2-yl]-2,7-diazaspiro[3.5]nonane]	4.30 to 5.00
FC(F)Cn1ncc2ncc(N3CC4(CCN(c5cccc(C(F)(F)F)n5)CC4)C3)nc21 [Compound 125, 2-[1-(2,2-difluoroethyl)-1H-pyrazolo[3,4-b]pyrazin-6-yl]-7-[6-(trifluoromethyl)pyridin-2-yl]-2,7-diazaspiro[3.5]nonane]	4.30 to 5.00
FC(F)Cn1ncc2ncc(N3CC4(CCN(c5cnccc5C(F)(F)F)CC4)C3)nc21 [Compound 128, 2-[1-(2,2-difluoroethyl)-1H-pyrazolo[3,4-b]pyrazin-6-yl]-7-[4-(trifluoromethyl)pyridin-3-yl]-2,7-diazaspiro[3.5]nonane]	4.30 to 5.00
FC(F)Cn1ncc2ncc(N3CC4(CCN(c5cccnc5C(F)(F)F)CC4)C3)nc21 [Compound 129, 2-[1-(2,2-difluoroethyl)-1H-pyrazolo[3,4-b]pyrazin-6-yl]-7-[2-(trifluoromethyl)pyridin-3-yl]-2,7-diazaspiro[3.5]nonane]	4.30 to 5.00
FC(F)Cn1ncc2ncc(NC3CCC4(CC3)CN(c3cccc(C(F)(F)F)n3)C4)nc21 [Compound 130, N-[1-(2,2-difluoroethyl)-1H-pyrazolo[3,4-b]pyrazin-6-yl]-2-[6-(trifluoromethyl)pyridin-2-yl]-2-azaspiro[3.5]nonan-7-amine]	4.30 to 5.00
FC(F)Cn1ncc2ncc(N3CC4(CC(COc5cc(C(F)(F)F)ccn5)C4)C3)nc21 [Compound 132, 2-[1-(2,2-difluoroethyl)-1H-pyrazolo[3,4-b]pyrazin-6-yl]-6-({[4-(trifluoromethyl)pyridin-2-yl]oxy}methyl)-2-azaspiro[3.3]heptane]	4.30 to 5.00
O=C1N(c2cccnc2C(F)(F)F)CCC12CCN(c1cnc3cnn(CC(F)F)c3n1)CC2 [Compound 135, 8-[1-(2,2-difluoroethyl)-1H-pyrazolo[3,4-b]pyrazin-6-yl]-2-[2-(trifluoromethyl)pyridin-3-yl]-2,8-diazaspiro[4.5]decan-1-one]	4.00 to 4.30
FC(F)(F)Cn1ncc2ncc(N3CC4(CCCN(c5ccc(C(F)(F)F)nc5)C4)C3)nc21 [Compound 136, 2-[1-(2,2,2-trifluoroethyl)-1H-pyrazolo[3,4-b]pyrazin-6-yl]-6-[6-(trifluoromethyl)pyridin-3-yl]-2,6-diazaspiro[3.5]nonane]	4.30 to 5.00
Cc1nn(CC(F)F)c2nc(N3CC4(CCCN(c5ccc(C(F)(F)F)nc5)C4)C3)cnc12 [Compound 137, 2-[1-(2,2-difluoroethyl)-3-methyl-1H-pyrazolo[3,4-b]pyrazin-6-yl]-6-[6-(trifluoromethyl)pyridin-3-yl]-2,6-diazaspiro[3.5]nonane]	< 4.00
FC(F)(F)c1ccc(N2CCCC3(C2)CN(c2cncc(-c4nncs4)n2)C3)cn1 [Compound 138, 2-[6-(1,3,4-thiadiazol-2-yl)pyrazin-2-yl]-6-[6-(trifluoromethyl)pyridin-3-yl]-2,6-diazaspiro[3.5]nonane]	4.30 to 5.00
FC(F)(F)Cn1ncc2ncc(N3CCC4(CCN(c5cc(C(F)(F)F)ccn5)CC4)C3)nc21 [Compound 139, 2-[1-(2,2,2-trifluoroethyl)-1H-pyrazolo[3,4-b]pyrazin-6-yl]-8-[4-(trifluoromethyl)pyridin-2-yl]-2,8-diazaspiro[4.5]decane]	4.30 to 5.00
Cc1nn(CC(F)F)c2nc(N3CCC4(CCN(c5cc(C(F)(F)F)ccn5)CC4)C3)cnc12 [Compound 140, 2-[1-(2,2-difluoroethyl)-3-methyl-1H-pyrazolo[3,4-b]pyrazin-6-yl]-8-[4-(trifluoromethyl)pyridin-2-yl]-2,8-diazaspiro[4.5]decane]	4.30 to 5.00
FC(F)(F)c1ccnc(N2CCC3(CC2)CCN(c2cncc(-c4nncs4)n2)C3)c1 [Compound 141, 2-[6-(1,3,4-thiadiazol-2-yl)pyrazin-2-yl]-8-[4-(trifluoromethyl)pyridin-2-yl]-2,8-diazaspiro[4.5]decane]	4.30 to 5.00
O=C1N(c2cc(C(F)(F)F)ccn2)CCC12CCN(c1cnc3cnn(CC(F)(F)F)c3n1)CC2 [Compound 142, 8-[1-(2,2,2-trifluoroethyl)-1H-pyrazolo[3,4-b]pyrazin-6-yl]-2-[4-(trifluoromethyl)pyridin-2-yl]-2,8-diazaspiro[4.5]decan-1-one]	> 5.00
FC(F)Cn1ncc2ncc(N3CCC4(CCN(c5cccc(C(F)(F)F)n5)C4)CC3)nc21 [Compound 143, 8-[1-(2,2-difluoroethyl)-1H-pyrazolo[3,4-b]pyrazin-6-yl]-2-[6-(trifluoromethyl)pyridin-2-yl]-2,8-diazaspiro[4.5]decane]	> 5.00
FC(F)Cn1ncc2ncc(N3CCC4(CCN(c5ccc(C(F)(F)F)cn5)C4)CC3)nc21 [Compound 144, 8-[1-(2,2-difluoroethyl)-1H-pyrazolo[3,4-b]pyrazin-6-yl]-2-[5-(trifluoromethyl)pyridin-2-yl]-2,8-diazaspiro[4.5]decane]	> 5.00
FC(F)Cn1ncc2ncc(N3CCC4(CC3)CCN(c3ncccc3C(F)(F)F)C4)nc21 [Compound 145, 8-[1-(2,2-difluoroethyl)-1H-pyrazolo[3,4-b]pyrazin-6-yl]-2-[3-(trifluoromethyl)pyridin-2-yl]-2,8-diazaspiro[4.5]decane]	4.30 to 5.00
FC(F)Cn1ncc2ncc(N3CCC4(CC3)CCN(c3cccnc3C(F)(F)F)C4)nc21 [Compound 146, 8-[1-(2,2-difluoroethyl)-1H-pyrazolo[3,4-b]pyrazin-6-yl]-2-[2-(trifluoromethyl)pyridin-3-yl]-2,8-diazaspiro[4.5]decane]	> 5.00
FC(F)Cn1ncc2ncc(N3CCC4(CCN(c5ccc(C(F)(F)F)nc5)C4)CC3)nc21 [Compound 147, 8-[1-(2,2-difluoroethyl)-1H-pyrazolo[3,4-b]pyrazin-6-yl]-2-[6-(trifluoromethyl)pyridin-3-yl]-2,8-diazaspiro[4.5]decane]	> 5.00
FC(F)Cn1ncc2ncc(N3CCC4(CCN(c5cncc(C(F)(F)F)c5)C4)CC3)nc21 [Compound 148, 8-[1-(2,2-difluoroethyl)-1H-pyrazolo[3,4-b]pyrazin-6-yl]-2-[5-(trifluoromethyl)pyridin-3-yl]-2,8-diazaspiro[4.5]decane]	> 5.00

Continued, values first:

pEC50	SMILES
> 5.00	O=C1N(c2cnc3cnn(CC(F)F)c3n2)CCC12CCN(c1ncccc1C(F)(F)F)CC2 [Compound 120, 2-[1-(2,2-difluoroethyl)-1H-pyrazolo[3,4-b]pyrazin-6-yl]-8-[3-(trifluoromethyl)pyridin-2-yl]-2,8-diazaspiro[4.5]decan-1-one]
> 5.00	O=C1N(c2cnc3cnn(CC(F)F)c3n2)CCC12CCN(c1ccc(C(F)(F)F)cn1)CC2 [Compound 121, 2-[1-(2,2-difluoroethyl)-1H-pyrazolo[3,4-b]pyrazin-6-yl]-8-[5-(trifluoromethyl)pyridin-2-yl]-2,8-diazaspiro[4.5]decan-1-one]
> 5.00	O=C1N(c2cnc3cnn(CC(F)F)c3n2)CCC12CCN(c1cncc(C(F)(F)F)c1)CC2 [Compound 122, 2-[1-(2,2-difluoroethyl)-1H-pyrazolo[3,4-b]pyrazin-6-yl]-8-[5-(trifluoromethyl)pyridin-3-yl]-2,8-diazaspiro[4.5]decan-1-one]
> 5.00	FC(F)Cn1ncc2ncc(N3CC4(CCN(c5ccc(C(F)(F)F)cn5)CC4)C3)nc21 [Compound 124, 2-[1-(2,2-difluoroethyl)-1H-pyrazolo[3,4-b]pyrazin-6-yl]-7-[5-(trifluoromethyl)pyridin-2-yl]-2,7-diazaspiro[3.5]nonane]
> 5.00	FC(F)Cn1ncc2ncc(N3CC4(CCN(c5cncc(C(F)(F)F)c5)CC4)C3)nc21 [Compound 126, 2-[1-(2,2-difluoroethyl)-1H-pyrazolo[3,4-b]pyrazin-6-yl]-7-[5-(trifluoromethyl)pyridin-3-yl]-2,7-diazaspiro[3.5]nonane]
> 5.00	FC(F)Cn1ncc2ncc(N3CC4(CCN(c5ccc(C(F)(F)F)nc5)CC4)C3)nc21 [Compound 127, 2-[1-(2,2-difluoroethyl)-1H-pyrazolo[3,4-b]pyrazin-6-yl]-7-[6-(trifluoromethyl)pyridin-3-yl]-2,7-diazaspiro[3.5]nonane]
> 5.00	FC(F)Cn1ncc2ncc(N3CC4(CC(COc5cccnc5C(F)(F)F)C4)C3)nc21 [Compound 131, 2-[1-(2,2-difluoroethyl)-1H-pyrazolo[3,4-b]pyrazin-6-yl]-6-({[2-(trifluoromethyl)pyridin-3-yl]oxy}methyl)-2-azaspiro[3.3]heptane]
> 5.00	FC(F)Cn1ncc2ncc(N3CC4(CC(COc5ccc(C(F)(F)F)nc5)C4)C3)nc21 [Compound 133, 2-[1-(2,2-difluoroethyl)-1H-pyrazolo[3,4-b]pyrazin-6-yl]-6-({[6-(trifluoromethyl)pyridin-3-yl]oxy}methyl)-2-azaspiro[3.3]heptane]
> 5.00	FC(F)Cn1ncc2ncc(N3CC4(CC(COc5cccc(C(F)(F)F)n5)C4)C3)nc21 [Compound 134, 2-[1-(2,2-difluoroethyl)-1H-pyrazolo[3,4-b]pyrazin-6-yl]-6-({[6-(trifluoromethyl)pyridin-2-yl]oxy}methyl)-2-azaspiro[3.3]heptane]
